pIC50: −log10 of the molar value. Like-named read-outs stand apart in the source and are kept apart here.
Experiments:
H2 receptor [1] = target: T1, H2 receptor (Homo sapiens, UniProt P25021); assay: IC50 antagonist activity screen (PathHunter β-Arrestin GPCR assay); format: cell-based; conditions: for Emax / Maximum inhibition (%): maximum inhibition (antagonism) from IC50 curves, about 60% or higher = strong activity; for Emax: read-out: IC50 (Inhibition - Max Response)
Text: It has additionally been discovered that the alkyl side chain length of cannabinoid compounds can influence the effect the cannabinoid compounds have on the GPCR receptors. For example, it has been discovered that increasing the length of the alkyl side chain, generally increases the antagonism of CBG and CBD to the H2 receptor. […] The RC50 value indicates the value at which the cannabinoid reached the reference compound's 50% effective concentration.
(§1) A single assay was run. In each run, PathHunter® cell lines were removed from a freezer stock and seeded at a volume of 20 μL into white walled, 384-well microplates and incubated at 37° C. Each cell was pre-incubated with the cannabinoid compound followed by an agonist challenge at the EC80 concentration. […] were then diluted to generate a 5x sample in assay buffer. 5 μL of the 5x sample was then added to cells and incubated at 37° C. for 30 minutes. Finally, 5 μL of 6x EC80 agonist in assay buffer were added to the cells and incubated at 37° C. for 90 minutes or 180 minutes. The assay signal was generated through addition of 12.5 μL or 15 μL (50% V/V) of a detection reagent cocktail followed by a one hour incubation time at room temperature. Microplates were read following signal generation with a PerkinElmer Envision™ (PerkinElmer Inc., Waltham, Mass.) for chemiluminescent signal detection. Reactivity was analyzed using the CBIS data analysis suite (ChemInnovation, CA) where RLU refers to the raw measured values. The percent inhibition was calculated using the formula: % Inhibition=100%*(1−mean RLU of test sample−mean RLU of control)/(mean RLU of EC80 control−mean RLU of vehicle control).
Based on the results of the GPCR reactivity screen, and IC50 antagonist activity screen was run against the H2 receptor. The IC50 antagonist activity screen was run for each of CBG, CBC, CBL, CBN, CBDV, CBD, CBD-C1, CBD-C2, (+)-CBD, CBG-C6, CBG-C7, CBG-C9, CBD-C6, CBD-C7, CBD-C9, CBGA-C6, CBGA-C7, and CBGA-C9. IC50 curves were measured using the same GPCR assay, PathHunter® β-Arrestin from Eurofins DiscoverX Products (Fremont, Calif.), as the GPCR reactivity screen. As used herein, strong activity against a receptor is considered a maximum activity of about 60% or higher. Higher results for antagonism against the H2 receptor are considered better.

H2 receptor [2] = target: T1, H2 receptor; assay: GPCR reactivity screen (PathHunter β-Arrestin GPCR assay), antagonist mode; format: cell-based; conditions: for H2 Receptor Antagonist Activity (percent inhibition): single assay run, pre-incubation with cannabinoid, then agonist challenge at EC80, test concentration not given, about 60% or higher = strong activity; for H2 antagonist activity in the GPCR reactivity screen (in words): summary of Table 1; for effect on sensitivity to histamine (in words): Table 1, negative inhibition
Description: To evaluate the H2 antagonist activity of the cannabinoid compounds, a GPCR reactivity assay was performed. The evaluated cannabinoid compounds were: CBN, THCV, CBDVA, CBG, CBL, CBC, CBDV, CBDA, CBD, CBGA, (+)-CBD, CBG-C4, CBD-C1, CBD-C2, CBGV, CBGA-C4, CBGVA, CBCA, and CBLA. Tiotidine was used as the control.
as §1
The percent inhibition is depicted. As used herein, strong activity against a receptor is considered a percent activity of about 60% or higher. Higher results for antagonism against the H2 receptor are considered better.

[3] = value at which the cannabinoid reached the reference compound's (tiotidine) 50% effective concentration, H2 receptor antagonist mode, read-out: RC50 (the source's name)

T1 sequence (P25021 whole entry): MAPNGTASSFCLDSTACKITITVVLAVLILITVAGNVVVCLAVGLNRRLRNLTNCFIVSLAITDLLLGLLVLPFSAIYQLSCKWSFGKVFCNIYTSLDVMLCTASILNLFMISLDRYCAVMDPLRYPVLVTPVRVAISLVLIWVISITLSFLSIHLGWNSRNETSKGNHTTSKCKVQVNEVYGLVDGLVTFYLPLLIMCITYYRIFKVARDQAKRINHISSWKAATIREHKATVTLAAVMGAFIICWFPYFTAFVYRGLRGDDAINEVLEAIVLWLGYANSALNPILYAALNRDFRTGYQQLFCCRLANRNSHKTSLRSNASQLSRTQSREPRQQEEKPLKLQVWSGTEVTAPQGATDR

Row | Compound | H2 Receptor Antagonist Activity (percent inhibition) (H2 receptor [2]) [%] | H2 antagonist activity in the GPCR reactivity screen (in words) (H2 receptor [2]) | Maximum inhibition (%) (H2 receptor [1]) | pIC50 (H2 receptor [1]; [3]) | other results
1 | CCCCCc1cc(O)c2c(c1)OC(C)(CCC=C(C)C)C=C2 (stereo not shown) [CBC, cannabichromene] | 117 |  |  |  | pIC50 (H2 receptor [1]): 5.58; Emax (H2 receptor [1]): 62%
2 | CCCCCc1cc2c(c(O)c1C(=O)O)C=CC(C)(CCC=C(C)C)O2 (stereo not shown) [CBCA, cannabichromenic acid] | 12 | did not demonstrate H2 antagonist activity |  |  | 
3 | C=C(C)[C@@H]1CCC(C)=C[C@H]1c1c(O)cc(CCCCC)cc1O [CBD, cannabidol] |  |  | 64 | 6.08 | 
4 | C=C(C)[C@@H]1CCC(C)=C[C@H]1c1c(O)cc(C)cc1O [CBD-C1, cannabidiorcol] | 47 | did not demonstrate H2 antagonist activity | 53 | < 5.00 | 
5 | C=C(C)[C@@H]1CCC(C)=C[C@H]1c1c(O)cc(CC)cc1O [CBD-C2, cannabidol-C2] |  |  | 71 | 5.28 | 
6 | C=C(C)[C@@H]1CCC(C)=C[C@H]1c1c(O)cc(CCCCCC)cc1O [CBD-C6, cannabidol hexyl] |  |  | 80 | 6.34 | 
7 | C=C(C)[C@@H]1CCC(C)=C[C@H]1c1c(O)cc(CCCCCCC)cc1O [CBD-C7, cannabidol heptyl] |  |  | 74 | 6.42 | 
8 | C=C(C)[C@@H]1CCC(C)=C[C@H]1c1c(O)cc(CCCCCCCCC)cc1O [CBD-C9, cannabidol nonyl] |  |  | 56 | 7.00 | 
9 | C=C(C)[C@@H]1CCC(C)=C[C@H]1c1c(O)cc(CCCCC)c(C(=O)O)c1O [CBDA, cannabidiolic acid] | 4 | did not demonstrate H2 antagonist activity |  |  | 
10 | C=C(C)[C@@H]1CCC(C)=C[C@H]1c1c(O)cc(CCC)cc1O [CBDV, cannabidivarin] |  |  |  | 5.35 | Emax (H2 receptor [1]): 75%
11 | C=C(C)[C@@H]1CCC(C)=C[C@H]1c1c(O)cc(CCC)c(C(=O)O)c1O [CBDVA, cannabidivarinic acid] | 12 | did not demonstrate H2 antagonist activity |  |  | 
12 | CCCCCc1cc(O)c(C/C=C(\C)CCC=C(C)C)c(O)c1 [CBG, cannabigerol] |  |  |  | < 5.00 | Emax (H2 receptor [1]): 21%
13 | CCCCc1cc(O)c(CC=C(C)CCC=C(C)C)c(O)c1 [CBG-C4, cannabigerol butyl] | −62 | did not demonstrate H2 antagonist activity |  |  | effect on sensitivity to histamine (in words) (H2 receptor [2]): increasing sensitivity to histamine
14 | CCCCCCc1cc(O)c(C/C=C(\C)CCC=C(C)C)c(O)c1 [CBG-C6, cannabigerol hexyl] |  |  | 84 | < 5.00 | 
15 | CCCCCCCc1cc(O)c(C/C=C(\C)CCC=C(C)C)c(O)c1 [CBG-C7, cannabigerol heptyl] |  |  | 93 | 5.47 | 
16 | CCCCCCCCCc1cc(O)c(C/C=C(\C)CCC=C(C)C)c(O)c1 [CBG-C9, cannabigerol nonyl] |  |  | 96 | 5.54 | 
17 | CCCCCc1cc(O)c(C/C=C(\C)CCC=C(C)C)c(O)c1C(=O)O [CBGA, cannabigerolic acid] | −3 | did not demonstrate H2 antagonist activity |  |  | effect on sensitivity to histamine (in words) (H2 receptor [2]): increasing sensitivity to histamine
18 | CCCCc1cc(O)c(C/C=C(\C)CCC=C(C)C)c(O)c1C(=O)O [CBGA-C4, cannabigerolic acid butyl] | 16 | did not demonstrate H2 antagonist activity |  |  | 
19 | CCCCCCc1cc(O)c(C/C=C(\C)CCC=C(C)C)c(O)c1C(=O)O [CBGA-C6, cannabigerolic acid hexyl] |  |  | 9 | < 5.00 | 
20 | CCCCCCCc1cc(O)c(C/C=C(\C)CCC=C(C)C)c(O)c1C(=O)O [CBGA-C7, cannabigerolic acid heptyl] |  |  | 17 | < 5.00 | 
21 | CCCCCCCCCc1cc(O)c(C/C=C(\C)CCC=C(C)C)c(O)c1C(=O)O [CBGA-C9, cannabigerolic acid nonyl] |  |  | 11 | < 5.00 | 
22 | CCCc1cc(O)c(C/C=C(\C)CCC=C(C)C)c(O)c1 [CBGV, cannabigerivarin] | 10 | did not demonstrate H2 antagonist activity |  |  | 
23 | CCCc1cc(O)c(C/C=C(\C)CCC=C(C)C)c(O)c1C(=O)O [CBGVA, cannabigerovarinic acid] | 2 | did not demonstrate H2 antagonist activity |  |  | 
24 | CCCCCc1cc(O)c2c(c1)OC1(C)CCC3C1C2C3(C)C (stereo not shown) [CBL, cannabicyclol] |  |  |  |  | pIC50 (H2 receptor [1]): 5.93; Emax (H2 receptor [1]): 64%
25 | CCCCCc1cc2c(c(O)c1C(=O)O)C1C3C(CCC3(C)O2)C1(C)C (stereo not shown) [CBLA, cannabicyclolic acid] | 11 | did not demonstrate H2 antagonist activity |  |  | 
26 | CCCCCc1cc(O)c2c(c1)OC(C)(C)c1ccc(C)cc1-2 [CBN, cannabinol] |  |  |  |  | pIC50 (H2 receptor [1]): < 5.00; Emax (H2 receptor [1]): 12%
27 | CCCc1cc(O)c2c(c1)OC(C)(C)[C@@H]1CCC(C)=C[C@@H]21 [THCV, tetrahydrocannabivarin] | −22 | did not demonstrate H2 antagonist activity |  |  | effect on sensitivity to histamine (in words) (H2 receptor [2]): increasing sensitivity to histamine
28 | (+)-cannabidiol [(+)-CBD] | 45 | did not demonstrate H2 antagonist activity | 42 | < 5.00 | 

— patent publication US20230047027A1, “COMPOSITIONS AND METHODS USING CANNABINOID COMPOUNDS FOR REGULATING GASTRIC ACID SECRETION TO TREAT GASTROESOPHAGEAL REFLUX DISEASE AND RELATED CONDITIONS” (Demetrix, Inc., priority 2021, published 2023)
